Laboratory results published in patent publication US5994368A, “Pyridopyrimidones, quinolines and fused N-heterocycles as bradykinin antagonists” (Fujisawa Pharmaceutical Co., Ltd., priority 1994, dated 1999).
Counter-ions that a name gives are not always drawn.

Target: T1, Bradykinin receptor (Cavia porcellus, UniProt O70526)
T1 construct: The ileum was removed and homogenized in buffer; from tissue; host or cells: guinea pig ileum, crude membrane suspension
T1 sequence (O70526 1-372): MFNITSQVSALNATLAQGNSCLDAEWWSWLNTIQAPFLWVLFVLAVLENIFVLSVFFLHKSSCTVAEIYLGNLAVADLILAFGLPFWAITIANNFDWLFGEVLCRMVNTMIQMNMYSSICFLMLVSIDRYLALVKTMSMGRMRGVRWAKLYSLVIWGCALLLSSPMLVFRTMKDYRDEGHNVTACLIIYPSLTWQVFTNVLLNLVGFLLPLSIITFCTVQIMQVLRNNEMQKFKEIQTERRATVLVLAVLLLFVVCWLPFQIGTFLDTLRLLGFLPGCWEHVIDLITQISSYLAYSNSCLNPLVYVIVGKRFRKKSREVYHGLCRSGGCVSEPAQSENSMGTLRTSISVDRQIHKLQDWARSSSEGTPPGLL
Assay: 3H-Bradykinin receptor binding (crude ileum membrane)
Design: species or system guinea pig (male Hartly strain)
Conditions: concentration: 1 × 10^-6 M; guinea pig ileum membrane, room temperature, 60 minutes
Experimental: ^3 H-Bradykinin receptor binding
(a) Crude ileum membrane preparation
Male Hartly strain guinea pigs were sacrificed by decapitation. The ileum was removed and homogenized in buffer (50 mM trimethylaminoethanesulfonic acid (TES), 1 mM 1,10-phenanthroline pH 6.8). The homogenate was centrifuged (1000× g, 20 minutes) to remove tissue clumps and the supernatant was centrifuges (100,000× g, 60 minutes) to yield a pellet. The pellet was resuspended in buffer (50 mM TES, 1 mM 1,10-phenanthroline, 140 mg/l bacitracin, 1 mM dithiothreiol, 0.1% bovine serum albumin pH 6.8) and homogenized with a glass-teflon homogenizer to yield suspension which was referred to as crude membrane suspension. The obtained membrane suspension was stored at -80° C. until use.
(b) ^3 H-Bradykinin binding to the membrane
The frozen crude membrane suspension was thawed. In binding assays, ^3 H-Bradykinin ([…]) and drug (1×10^-6 M) were incubated with 50 μl of the membrane suspension at room temperature for 60 minutes in a final volume of 250 μl. Separation of receptor-bound from free ^3 H-Bradykinin is achieved by immediate filtration under vacuum and washed three times with 5 ml of ice-cold buffer (50 mM Tris-HCl pH 7.5). Non-specific binding was defined as binding in the presence of 0.1 μM Bradykinin. The radioactivity retained on rinsed filters was determined by a liquid-scintillation counter.

**Q.** For `Cc1ccc2cccc(OCc3c(Cl)ccc(N(C)C(=O)CNC(=O)CNc4nc5ccccc5s4)c3Cl)c2n1` [2-(14), 8-[3-[N-[2-(2-Benzothiazolylamino)acetylglycyl]-N-methylamino]-2,6-dichlorobenzyloxy]-2-methylquinoline], which inhibition at 1 µM is on record?
**A.** 96%

**Q.** For `CNC(=O)c1nc2ccc(C(=O)NCC(=O)N(C)c3ccc(Cl)c(COc4cccc5ccc(C)nc45)c3Cl)cc2cc1C` [25-(2) dihydrochloride], which inhibition at 1 µM is on record?
**A.** 96%

**Q.** With `CNC(=O)c1ccc(/C=C/C(=O)NCC(=O)N(C)c2ccc(Cl)c(COc3cccc4c(NCCOC)cc(C)nc34)c2Cl)cc1` [10-(9) dihydrochloride] as the molecule, how does the inhibition at 1 µM read?
**A.** 99%

**Q.** Which inhibition at 1 µM does the source give for `CNC(=O)c1ccc(/C=C/C(=O)NCC(=O)N(C)c2ccc(C)c(COc3cccn4c(=O)cc(C)nc34)c2C)cc1` [90-(2), 9-[2,6-Dimethyl-3-[N-methyl-N-[4(methylcarbomoyl)cinnamoylglycyl]amino]benzyloxy]-2-methyl-4H-pyrido-[1,2-a]pyrimidin-4-one] here?
**A.** 98%

**Q.** How did the inhibition at 1 µM turn out when `CNC(=O)c1ccc(/C=C/C(=O)NCC(=O)N(C)c2ccc(Cl)c(CNc3cccc4ccc(C)nc34)c2Cl)cc1` [Example 73-(4), 8-[2,6-dichloro-3-[N-methyl-N-[4-(methylcarbamoyl)cinnamoylglycyl]amino]benzylamino]-2-methylquinoline dihydrochloride] was run?
**A.** 95%

**Q.** `CNC(=O)c1ccc(/C=C/C(=O)NCC(=O)N(C)c2ccc(Cl)c(COc3cccc4ccc(C)nc34)c2)cc1` [37-(5) hydrochloride] was tested. Which inhibition at 1 µM did it give?
**A.** 100%

**Q.** How did the inhibition at 1 µM turn out when `COC(=O)c1cncc(NC(=O)NCC(=O)N(C)c2ccc(Cl)c(COc3cccc4ccc(C)nc34)c2Cl)c1` [34-(3), 8-[2,6-Dichloro-3-[N-[N'-(5-methoxycarbonylpyridin-3-yl)ureidoacetyl]-N-methylamino]benzyloxy]-2-methylquinoline] was run?
**A.** 100%
